Assay results taken from the NIST ThermoML archive (doi:10.1021/acs.jced.8b00201).
Numbers after ± are expanded uncertainties.

Test: xn = mol fraction of the nth substance listed
Details: 100 kPa, Liquid; for mass density: Vibrating tube method; for viscosity: Concentric cylinders viscometry

SMILES: O=C1CCCCC1 [cyclohexanone] + CCCCCCCCO
- mass density (308.15 K, x1 = 0.0803): 820.5 ± 20 kg/m3
- mass density (308.15 K, x1 = 0.1519): 826.1 ± 20 kg/m3
- mass density (308.15 K, x1 = 0.2388): 833.6 ± 20 kg/m3
- mass density (308.15 K, x1 = 0.3427): 843.2 ± 20 kg/m3
- mass density (308.15 K, x1 = 0.4378): 852.9 ± 20 kg/m3
- mass density (308.15 K, x1 = 0.5606): 866.8 ± 20 kg/m3
- mass density (308.15 K, x1 = 0.6498): 877.9 ± 20 kg/m3
- mass density (308.15 K, x1 = 0.7407): 890.4 ± 20 kg/m3
- mass density (308.15 K, x1 = 0.8422): 905.9 ± 20 kg/m3
- mass density (308.15 K, x1 = 0.9377): 922 ± 20 kg/m3
- mass density (308.15 K, x1 = 1): 933.5 ± 20 kg/m3
- viscosity (313.15 K, x1 = 0.0803): 4.07 ± 0.2 mPa·s
- viscosity (313.15 K, x1 = 0.1519): 3.6 ± 0.2 mPa·s
- viscosity (313.15 K, x1 = 0.2388): 3.12 ± 0.16 mPa·s
- viscosity (313.15 K, x1 = 0.3427): 2.63 ± 0.13 mPa·s
- viscosity (313.15 K, x1 = 0.4378): 2.3 ± 0.1 mPa·s
- viscosity (313.15 K, x1 = 0.5606): 1.95 ± 0.1 mPa·s
- viscosity (313.15 K, x1 = 0.6498): 1.75 ± 0.09 mPa·s
- viscosity (313.15 K, x1 = 0.7407): 1.64 ± 0.08 mPa·s
- viscosity (313.15 K, x1 = 0.8422): 1.6 ± 0.08 mPa·s
- viscosity (313.15 K, x1 = 0.9377): 1.57 ± 0.08 mPa·s
- viscosity (313.15 K, x1 = 1): 1.6 ± 0.08 mPa·s
- mass density (313.15 K, x1 = 0.0803): 816.8 ± 20 kg/m3
- mass density (313.15 K, x1 = 0.1519): 822.4 ± 20 kg/m3
- mass density (313.15 K, x1 = 0.2388): 829.7 ± 20 kg/m3
- mass density (313.15 K, x1 = 0.3427): 839.2 ± 20 kg/m3
- mass density (313.15 K, x1 = 0.4378): 848.8 ± 20 kg/m3
- mass density (313.15 K, x1 = 0.5606): 862.5 ± 20 kg/m3
- mass density (313.15 K, x1 = 0.6498): 873.6 ± 20 kg/m3
- mass density (313.15 K, x1 = 0.7407): 886 ± 20 kg/m3
- mass density (313.15 K, x1 = 0.8422): 901.3 ± 20 kg/m3
- mass density (313.15 K, x1 = 0.9377): 917.3 ± 20 kg/m3
- mass density (313.15 K, x1 = 1): 928.8 ± 20 kg/m3
- viscosity (318.15 K, x1 = 0.0803): 3.51 ± 0.18 mPa·s
- viscosity (318.15 K, x1 = 0.1519): 3.11 ± 0.16 mPa·s
- viscosity (318.15 K, x1 = 0.2388): 2.73 ± 0.14 mPa·s
- viscosity (318.15 K, x1 = 0.3427): 2.32 ± 0.12 mPa·s
- viscosity (318.15 K, x1 = 0.4378): 2.04 ± 0.1 mPa·s
- viscosity (318.15 K, x1 = 0.5606): 1.75 ± 0.09 mPa·s
- viscosity (318.15 K, x1 = 0.6498): 1.6 ± 0.08 mPa·s
- viscosity (318.15 K, x1 = 0.7407): 1.5 ± 0.08 mPa·s
- viscosity (318.15 K, x1 = 0.8422): 1.46 ± 0.07 mPa·s
- viscosity (318.15 K, x1 = 0.9377): 1.44 ± 0.07 mPa·s
- viscosity (318.15 K, x1 = 1): 1.46 ± 0.07 mPa·s
- mass density (318.15 K, x1 = 0.0803): 813.1 ± 20 kg/m3
- mass density (318.15 K, x1 = 0.1519): 818.6 ± 20 kg/m3
- mass density (318.15 K, x1 = 0.2388): 825.8 ± 20 kg/m3
- mass density (318.15 K, x1 = 0.3427): 835.2 ± 20 kg/m3
- mass density (318.15 K, x1 = 0.4378): 844.7 ± 20 kg/m3
- mass density (318.15 K, x1 = 0.5606): 858.4 ± 20 kg/m3
- mass density (318.15 K, x1 = 0.6498): 869.3 ± 20 kg/m3
- mass density (318.15 K, x1 = 0.7407): 881.6 ± 20 kg/m3
- mass density (318.15 K, x1 = 0.8422): 896.9 ± 20 kg/m3
- mass density (318.15 K, x1 = 0.9377): 912.9 ± 20 kg/m3
- mass density (318.15 K, x1 = 1): 924.4 ± 20 kg/m3
- viscosity (323.15 K, x1 = 0.0803): 3.03 ± 0.15 mPa·s
- viscosity (323.15 K, x1 = 0.1519): 2.73 ± 0.14 mPa·s
- viscosity (323.15 K, x1 = 0.2388): 2.42 ± 0.12 mPa·s
- viscosity (323.15 K, x1 = 0.3427): 2.09 ± 0.11 mPa·s
- viscosity (323.15 K, x1 = 0.4378): 1.85 ± 0.09 mPa·s
- viscosity (323.15 K, x1 = 0.5606): 1.6 ± 0.08 mPa·s
- viscosity (323.15 K, x1 = 0.6498): 1.46 ± 0.07 mPa·s
- viscosity (323.15 K, x1 = 0.7407): 1.37 ± 0.07 mPa·s
- viscosity (323.15 K, x1 = 0.8422): 1.34 ± 0.07 mPa·s
- viscosity (323.15 K, x1 = 0.9377): 1.32 ± 0.07 mPa·s
- viscosity (323.15 K, x1 = 1): 1.34 ± 0.07 mPa·s
- mass density (323.15 K, x1 = 0.0803): 809.5 ± 20 kg/m3
- mass density (323.15 K, x1 = 0.1519): 814.9 ± 20 kg/m3
- mass density (323.15 K, x1 = 0.2388): 822.1 ± 20 kg/m3
- mass density (323.15 K, x1 = 0.3427): 831.5 ± 20 kg/m3
- mass density (323.15 K, x1 = 0.4378): 841 ± 20 kg/m3
- mass density (323.15 K, x1 = 0.5606): 854.6 ± 20 kg/m3
- mass density (323.15 K, x1 = 0.6498): 865.5 ± 20 kg/m3
- mass density (323.15 K, x1 = 0.7407): 877.9 ± 20 kg/m3
- mass density (323.15 K, x1 = 0.8422): 893.2 ± 20 kg/m3
- mass density (323.15 K, x1 = 0.9377): 909.2 ± 20 kg/m3
- mass density (323.15 K, x1 = 1): 920.7 ± 20 kg/m3
